Marks after values point to notes of the source that are not given here.
Experiments:
rat CFA pain model [1] = assay: single-dose pharmacodynamic study in rat CFA pain model (Von Frey PWT); format: in vivo; conditions: for Mechanical allodynia test (PWT (g), mean) Baseline: 10 mg/kg I.P. group, baseline 24 h after CFA, before administration; for Mechanical allodynia test (PWT (g), mean) 1 hour: 1 hour after single administration; for Mechanical allodynia test (PWT (g), mean) 3 hours: 3 hours after single administration; for inhibition of CFA-induced mechanical allodynia (in words): single administration, FIG. 1
Description: Each male SD rat (7-8 weeks old) was injected with 50 microliters of CFA in the center of the left hind paw. A PWT basal value test was conducted 24 hours after modeling, and the drugs were administered after randomization.
There were 8 animals in each group, and the animals were weighed and administered according to Table 4.
For all groups of animals, paw withdrawal thresholds (PWTs) of the animals were tested using Von Frey after 1 h and 3 h of single administration.

human SSTR1 = target: T1, human SSTR1 (Homo sapiens, UniProt P30872); assay: biochemical; conditions: 25° C., 2 hours, Cheng-Prusoff; read-out: Binding Ki (nM) SSTR1
T1 construct: expressed in transfected cells; host or cells: CHO-K1 (membrane homogenates)
T1 sequence (P30872 whole entry): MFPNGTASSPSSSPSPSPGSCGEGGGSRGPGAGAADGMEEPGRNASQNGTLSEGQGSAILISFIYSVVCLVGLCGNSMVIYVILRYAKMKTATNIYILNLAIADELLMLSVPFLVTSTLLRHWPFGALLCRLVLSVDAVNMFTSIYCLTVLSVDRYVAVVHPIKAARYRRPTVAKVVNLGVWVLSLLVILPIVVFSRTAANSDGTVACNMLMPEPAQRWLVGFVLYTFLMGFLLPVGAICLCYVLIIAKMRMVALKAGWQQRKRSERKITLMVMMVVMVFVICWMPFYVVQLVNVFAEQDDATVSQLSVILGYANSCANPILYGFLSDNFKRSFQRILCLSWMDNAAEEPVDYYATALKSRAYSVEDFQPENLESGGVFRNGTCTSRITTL
Description: (§1) Cell membranes were then filtered and washed, and protein-bound radioactivity was measured with a suitable instrument. The Ki values of corresponding targets were calculated using a Cheng-Prusoff formula.

human SSTR2 = target: T2, human SSTR2 (Homo sapiens, UniProt P30874); assay: biochemical; conditions: 25° C., 2 hours, Cheng-Prusoff; read-out: Binding Ki (nM) SSTR2
T2 construct: expressed in transfected cells; host or cells: CHO-K1 (membrane homogenates)
T2 sequence (P30874 whole entry): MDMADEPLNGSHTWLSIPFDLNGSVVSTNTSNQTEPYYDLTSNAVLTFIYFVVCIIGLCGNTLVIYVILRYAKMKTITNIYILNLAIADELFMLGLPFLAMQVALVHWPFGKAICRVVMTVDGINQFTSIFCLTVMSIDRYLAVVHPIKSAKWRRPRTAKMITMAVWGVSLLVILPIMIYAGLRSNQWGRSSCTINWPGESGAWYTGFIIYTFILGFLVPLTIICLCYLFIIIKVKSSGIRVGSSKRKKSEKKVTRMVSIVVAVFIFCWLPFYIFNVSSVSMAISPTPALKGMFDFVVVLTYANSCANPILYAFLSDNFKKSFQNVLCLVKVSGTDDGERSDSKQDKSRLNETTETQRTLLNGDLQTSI
Description: as §1

human SSTR3 = target: T3, human SSTR3 (Homo sapiens, UniProt P32745); assay: biochemical; conditions: 25° C., 2 hours, Cheng-Prusoff; read-out: Binding Ki (nM) SSTR3
T3 construct: expressed in transfected cells; host or cells: CHO-K1 (membrane homogenates)
T3 sequence (P32745 whole entry): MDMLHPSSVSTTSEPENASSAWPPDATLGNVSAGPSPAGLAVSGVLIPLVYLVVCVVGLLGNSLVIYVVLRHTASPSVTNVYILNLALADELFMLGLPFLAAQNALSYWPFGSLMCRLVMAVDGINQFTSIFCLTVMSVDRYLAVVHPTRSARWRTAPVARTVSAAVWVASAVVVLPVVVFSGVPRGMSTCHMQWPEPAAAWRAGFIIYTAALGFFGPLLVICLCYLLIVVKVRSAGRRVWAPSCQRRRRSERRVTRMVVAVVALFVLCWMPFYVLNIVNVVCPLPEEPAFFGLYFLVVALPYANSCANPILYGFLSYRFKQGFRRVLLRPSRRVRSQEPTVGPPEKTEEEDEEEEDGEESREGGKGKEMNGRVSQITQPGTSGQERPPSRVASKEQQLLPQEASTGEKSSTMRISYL
Description: as §1

human SSTR5 = target: T4, human SSTR5 (Homo sapiens, UniProt P35346); assay: biochemical; conditions: 25° C., 2 hours, Cheng-Prusoff; read-out: Binding Ki (nM) SSTR5
T4 construct: expressed in transfected cells; host or cells: CHO-K1 (membrane homogenates)
T4 sequence (P35346 whole entry): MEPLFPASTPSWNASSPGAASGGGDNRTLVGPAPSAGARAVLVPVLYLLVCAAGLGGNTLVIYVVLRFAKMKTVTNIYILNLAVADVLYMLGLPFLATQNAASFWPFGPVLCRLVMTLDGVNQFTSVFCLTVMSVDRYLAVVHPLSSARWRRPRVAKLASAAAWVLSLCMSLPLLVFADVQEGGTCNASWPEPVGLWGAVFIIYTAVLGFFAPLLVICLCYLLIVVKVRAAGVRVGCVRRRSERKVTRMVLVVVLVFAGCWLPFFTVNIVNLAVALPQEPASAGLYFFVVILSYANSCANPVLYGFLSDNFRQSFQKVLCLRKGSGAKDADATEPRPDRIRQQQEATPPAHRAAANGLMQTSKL
Description: as §1

[2] = pharmacokinetic evaluation in rats after oral and intravenous administration; format: in vivo; conditions: Sprague-Dawley, rat, plasma, male SD rats, oral 10.0 mg/kg, intravenous 1.0 mg/kg, route and unit inferred
Description: Using rats as test animals, an LC/MS/MS method was used to determine the drug concentrations in plasma at different times after oral and intravenous administration of Compound 1a and Compound 14 in the rats. The pharmacokinetic behavior of the compounds of the present invention in rats was studied, and pharmacokinetic characteristics thereof were evaluated.
For each compound, 6 healthy adult SD (Sprague-Dawley) rats, male, were divided into oral and intravenous administration groups, 3 rats in each group, purchased from Shanghai SIPPR/BK Laboratory Animal Co., Ltd., animal production license number: SCXK (Shanghai) 2008-0016.
A specific amount of the drug was weighed and dissolved in 5% dimethylacetamide (DMA) + 5% polyethylene glycol-15 hydroxystearate (solutol) + 90% saline solution to prepare a 0.2 mg/mL solution.
The SD rats were fasted overnight and were administered orally and intravenously. The oral dose was 10.0 mg/kg, and the intravenous dose was 1.0 mg/kg.
Compound 1a and Compound 14 were administered orally and intravenously to the rats. At 0.083, 0.25, 0.5, 1, 2, 4, 8, and 24 hours after administration, 0.2 mL of blood was collected from the submandibular vein or other suitable blood vessels, placed in K2-EDTA tubes, and then stored on ice. Within one hour, the plasma was separated by centrifugation at 6,800 g for 6 minutes at 2-8° C., and stored at -80° C. for LC/MS/MS analysis. The rats were fed 4 hours after administration.

rat CFA pain model [3] = assay: multi-dose oral pharmacodynamic study in rat CFA pain model (Von Frey PWT); format: in vivo
Description: The efficacy of Compound 1a and Compound 14 in the rat CFA pain model was evaluated using a mechanical allodynia method.
SD rats, 72 males, divided into 9 groups, were purchased from Beijing Vital River Laboratory Animal Technology Co., Ltd.
The experimental animals were adaptively reared for 3 to 7 days, and 8 of them were selected as a normal control group, and the other animals were injected with 50 µL of CFA in the center of the left hind paw for modeling. 24 hours after injection, the animals were tested for paw withdrawal threshold (PWT) basal values, and were divided into groups according to the basal values, which were solvent control group, indomethacin group, Compound 1a, 10 mpk group, Compound 1a, 30 mpk group, Compound 1a, 100 mpk group, Compound 14, 3 mpk group, Compound 14, 10 mpk group, and Compound 14, 30 mpk group, with 8 animals in each group. Subsequently, the animals were weighed and administered orally according to Table 6. All the animals were tested for paw withdrawal thresholds (PWT) using Von Frey 1, 2, and 4 hours after administration to further evaluate the efficacy of the compounds of the present invention.

human SSTR4 = target: T5, human SSTR4 (Homo sapiens, UniProt P31391); assay: radioligand binding assay, [125I]Somatostatin-14, CHO-K1 membranes
T5 construct: expressed in transfected cells
T5 sequence (P31391 whole entry): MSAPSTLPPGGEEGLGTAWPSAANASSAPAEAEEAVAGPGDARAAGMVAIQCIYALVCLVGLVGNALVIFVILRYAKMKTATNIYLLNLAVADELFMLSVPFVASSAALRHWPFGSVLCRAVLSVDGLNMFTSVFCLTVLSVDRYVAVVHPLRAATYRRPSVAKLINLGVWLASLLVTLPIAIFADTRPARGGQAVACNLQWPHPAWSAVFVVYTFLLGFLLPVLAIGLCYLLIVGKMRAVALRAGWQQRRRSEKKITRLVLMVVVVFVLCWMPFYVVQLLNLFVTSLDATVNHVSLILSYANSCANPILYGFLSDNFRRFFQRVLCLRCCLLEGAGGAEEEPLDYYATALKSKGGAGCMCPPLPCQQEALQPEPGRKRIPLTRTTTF
Description: as §1

Compound: Cc1cccc2c(C(C)(C)NC(=O)[C@H]3[C@@H]4CNC[C@@H]43)nn(C)c12 [Control Compound A, reference compound]
- Mechanical allodynia test (PWT (g), mean) Baseline (rat CFA pain model [1]): 3.765 g
- Mechanical allodynia test (PWT (g), mean) 1 hour (rat CFA pain model [1]; 10 mg/kg I.P.): 3.813 g
- Mechanical allodynia test (PWT (g), mean) 3 hours (rat CFA pain model [1]; 10 mg/kg I.P.): 6.237 * g
- inhibition of CFA-induced mechanical allodynia (in words) (rat CFA pain model [1]; 10 mg/kg I.P.): inhibited CFA-induced mechanical allodynia
- Ki (human SSTR1): 1800 nM
- Ki (human SSTR2): > 5310 nM
- Ki (human SSTR3): > 3420 nM
- Ki (human SSTR5): > 5650 nM

Compound: CSc1cccn2c(C(C)(C)NC(=O)[C@H]3[C@@H]4CNC[C@@H]43)ncc12 [Compound 1a, (1R,5S,6R)-N-(2-(8-(Methylthio)Imidazo[1,5-a]Pyridin-3-yl)Prop-2-yl)-3-Azabicyclo[3.1.0]Hexane-6-Carboxamide]
- half-life [2]: 2.58 ± 1.07 h
- Vd ([2]; read-out: Apparent volume of distribution): 5.12 ± 1.14 L/kg
- clearance ([2]; read-out: Clearance rate): 53 ± 1.76 mL/min/kg
- Mechanical allodynia test (PWT (g), mean) Baseline (rat CFA pain model [1]): 3.554 g
- Mechanical allodynia test (PWT (g), mean) 1 hour (rat CFA pain model [1]; 10 mg/kg I.P.): 6.484 * # g
- efficacy compared with Control Compound A (in words) (rat CFA pain model [1]; 10 mg/kg I.P., 1 hour and 3 hours after administration): significantly better than that of Control Compound A
- Mechanical allodynia test (PWT (g), mean) 3 hours (rat CFA pain model [1]; 10 mg/kg I.P.): 8.371 **** g
- inhibition of CFA-induced mechanical allodynia (in words) (rat CFA pain model [1]; 10 mg/kg I.P.): inhibited CFA-induced mechanical allodynia
- Paw withdrawal threshold (PWT(g)) (average) 0 hours (rat CFA pain model [3]; 10 mg/kg oral group): 3.016 g
- Paw withdrawal threshold (PWT(g)) (average) 1 hour (rat CFA pain model [3]; 10 mg/kg oral): 4.020 g
- Paw withdrawal threshold (PWT(g)) (average) 2 hours (rat CFA pain model [3]; 10 mg/kg oral): 6.722 * g
- Paw withdrawal threshold (PWT(g)) (average) 4 hours (rat CFA pain model [3]; 10 mg/kg oral): 8.438 **** g
- Paw withdrawal threshold (PWT(g)) (average) 0 hours (rat CFA pain model [3]; 30 mg/kg oral group): 3.118 g
- Paw withdrawal threshold (PWT(g)) (average) 1 hour (rat CFA pain model [3]; 30 mg/kg oral): 4.173 g
- Paw withdrawal threshold (PWT(g)) (average) 2 hours (rat CFA pain model [3]; 30 mg/kg oral): 7.637 ** g
- Paw withdrawal threshold (PWT(g)) (average) 4 hours (rat CFA pain model [3]; 30 mg/kg oral): 10.958 **** ### g
- Paw withdrawal threshold (PWT(g)) (average) 0 hours (rat CFA pain model [3]; 100 mg/kg oral group): 3.118 g
- Paw withdrawal threshold (PWT(g)) (average) 1 hour (rat CFA pain model [3]; 100 mg/kg oral): 3.855 g
- Paw withdrawal threshold (PWT(g)) (average) 2 hours (rat CFA pain model [3]; 100 mg/kg oral): 9.549 **** g
- Paw withdrawal threshold (PWT(g)) (average) 4 hours (rat CFA pain model [3]; 100 mg/kg oral): 9.687 **** # g
- efficacy compared with positive control compound indomethacin (in words) (rat CFA pain model [3]; 30 mpk and 100 mpk groups, oral, 4 hours after administration): significantly better than that of the positive control compound indomethacin
- inhibition of CFA-induced mechanical hyperalgesia (in words) (rat CFA pain model [3]; oral 10, 30, 100 mg/kg, 2 and 4 hours after administration): dose-dependently inhibit
- onset dose (rat CFA pain model [3]; oral, inhibition of CFA-induced mechanical hyperalgesia): 10 mg/kg
- Ki (human SSTR1): > 8280 nM
- Ki (human SSTR2): > 5310 nM
- Ki (human SSTR3): > 3420 nM
- Ki (human SSTR5): > 5650 nM
- Ki (human SSTR4): 0.00552 µM
- SSTR4 selectivity (in words) (human SSTR4; binding selectivity to SSTRs 1-5): the best
- SSTR4 /SSTR 1 (human SSTR4; ratio of binding Ki values, selectivity): > 1500

From patent US20230192683A1, “FUSED RING COMPOUNDS, PREPARATION METHOD THEREFOR, PHARMACEUTICAL COMPOSITIONS AND USE THEREOF” (priority 2020, published 2023)
